Reference: ChEMBL document CHEMBL1201862, “PubChem BioAssay data set” (2004)
Calls of active or inactive are those of the source.

Tests used:
A-375 [1] = assay: MITF: Counter assay: A375 proliferation Measured in Cell-Based System Using Plate Reader - 2084-03_Inhibitor_Dose_DryPowder_Activity. [Related pubchem assays (depositor defined):AID488944]; type: functional; settings: Homo sapiens
A-375 [2] = assay: A375 melanoma cell viability reduction, dose response, counter-screen for MITF modulator project, cherry-pick samples, set 2 (AID 540335); type: functional, cell-based; settings: Homo sapiens
Jurkat = assay: SAR Analysis of small molecule inhibitors of […] specific antigen receptor-induced NF-kB activation in a Jurkat cell line using a luminescence assay - Set 3. [Related pubchem assays (depositor defined):AID435022, AID435025, AID465]; type: functional, cell-based; settings: Homo sapiens
HEK293 [3] = assay: SAR Analysis of small molecule inhibitors of B-cell specific antigen receptor-induced NF-kB activation in a HEK-293T cell line using a luminescence assay - Set 2. [Related pubchem assays (depositor defined):AID435022, AID435025, AID489021]; type: functional, cell-based; settings: Homo sapiens
HEK293 [4] = assay: cytotoxicity in HEK293T NF-kB-Luc cells, SAR follow-up, cytotoxicity control for NF-kB activator project, cell-based, resazurin fluorescence (AID 493251); type: functional; settings: Homo sapiens
SUMO E1/E2 = SUMO E1/E2 (Homo sapiens, UniProt P63279+Q9UBE0+Q9UBT2); assay: SAR analysis of SUMOylation using HTRF in an in-Vitro dose response assay. [Related pubchem assays (depositor defined):AID2006, AID2011, AID2018, AID2069, AID2658]; type: functional
[5] = molecular target: T1, Voltage-gated N-type calcium channel alpha-1B subunit/Amyloid beta A4 precursor protein-binding family A member 1 (Homo sapiens, UniProt Q00975+Q02410); assay: disruptors of Mint-PDZ/N-type channel peptide interaction – biochemical, HTRF, set 2, SAR follow-up (AID 434980); type: functional
T1 sequence (Q00975 whole entry): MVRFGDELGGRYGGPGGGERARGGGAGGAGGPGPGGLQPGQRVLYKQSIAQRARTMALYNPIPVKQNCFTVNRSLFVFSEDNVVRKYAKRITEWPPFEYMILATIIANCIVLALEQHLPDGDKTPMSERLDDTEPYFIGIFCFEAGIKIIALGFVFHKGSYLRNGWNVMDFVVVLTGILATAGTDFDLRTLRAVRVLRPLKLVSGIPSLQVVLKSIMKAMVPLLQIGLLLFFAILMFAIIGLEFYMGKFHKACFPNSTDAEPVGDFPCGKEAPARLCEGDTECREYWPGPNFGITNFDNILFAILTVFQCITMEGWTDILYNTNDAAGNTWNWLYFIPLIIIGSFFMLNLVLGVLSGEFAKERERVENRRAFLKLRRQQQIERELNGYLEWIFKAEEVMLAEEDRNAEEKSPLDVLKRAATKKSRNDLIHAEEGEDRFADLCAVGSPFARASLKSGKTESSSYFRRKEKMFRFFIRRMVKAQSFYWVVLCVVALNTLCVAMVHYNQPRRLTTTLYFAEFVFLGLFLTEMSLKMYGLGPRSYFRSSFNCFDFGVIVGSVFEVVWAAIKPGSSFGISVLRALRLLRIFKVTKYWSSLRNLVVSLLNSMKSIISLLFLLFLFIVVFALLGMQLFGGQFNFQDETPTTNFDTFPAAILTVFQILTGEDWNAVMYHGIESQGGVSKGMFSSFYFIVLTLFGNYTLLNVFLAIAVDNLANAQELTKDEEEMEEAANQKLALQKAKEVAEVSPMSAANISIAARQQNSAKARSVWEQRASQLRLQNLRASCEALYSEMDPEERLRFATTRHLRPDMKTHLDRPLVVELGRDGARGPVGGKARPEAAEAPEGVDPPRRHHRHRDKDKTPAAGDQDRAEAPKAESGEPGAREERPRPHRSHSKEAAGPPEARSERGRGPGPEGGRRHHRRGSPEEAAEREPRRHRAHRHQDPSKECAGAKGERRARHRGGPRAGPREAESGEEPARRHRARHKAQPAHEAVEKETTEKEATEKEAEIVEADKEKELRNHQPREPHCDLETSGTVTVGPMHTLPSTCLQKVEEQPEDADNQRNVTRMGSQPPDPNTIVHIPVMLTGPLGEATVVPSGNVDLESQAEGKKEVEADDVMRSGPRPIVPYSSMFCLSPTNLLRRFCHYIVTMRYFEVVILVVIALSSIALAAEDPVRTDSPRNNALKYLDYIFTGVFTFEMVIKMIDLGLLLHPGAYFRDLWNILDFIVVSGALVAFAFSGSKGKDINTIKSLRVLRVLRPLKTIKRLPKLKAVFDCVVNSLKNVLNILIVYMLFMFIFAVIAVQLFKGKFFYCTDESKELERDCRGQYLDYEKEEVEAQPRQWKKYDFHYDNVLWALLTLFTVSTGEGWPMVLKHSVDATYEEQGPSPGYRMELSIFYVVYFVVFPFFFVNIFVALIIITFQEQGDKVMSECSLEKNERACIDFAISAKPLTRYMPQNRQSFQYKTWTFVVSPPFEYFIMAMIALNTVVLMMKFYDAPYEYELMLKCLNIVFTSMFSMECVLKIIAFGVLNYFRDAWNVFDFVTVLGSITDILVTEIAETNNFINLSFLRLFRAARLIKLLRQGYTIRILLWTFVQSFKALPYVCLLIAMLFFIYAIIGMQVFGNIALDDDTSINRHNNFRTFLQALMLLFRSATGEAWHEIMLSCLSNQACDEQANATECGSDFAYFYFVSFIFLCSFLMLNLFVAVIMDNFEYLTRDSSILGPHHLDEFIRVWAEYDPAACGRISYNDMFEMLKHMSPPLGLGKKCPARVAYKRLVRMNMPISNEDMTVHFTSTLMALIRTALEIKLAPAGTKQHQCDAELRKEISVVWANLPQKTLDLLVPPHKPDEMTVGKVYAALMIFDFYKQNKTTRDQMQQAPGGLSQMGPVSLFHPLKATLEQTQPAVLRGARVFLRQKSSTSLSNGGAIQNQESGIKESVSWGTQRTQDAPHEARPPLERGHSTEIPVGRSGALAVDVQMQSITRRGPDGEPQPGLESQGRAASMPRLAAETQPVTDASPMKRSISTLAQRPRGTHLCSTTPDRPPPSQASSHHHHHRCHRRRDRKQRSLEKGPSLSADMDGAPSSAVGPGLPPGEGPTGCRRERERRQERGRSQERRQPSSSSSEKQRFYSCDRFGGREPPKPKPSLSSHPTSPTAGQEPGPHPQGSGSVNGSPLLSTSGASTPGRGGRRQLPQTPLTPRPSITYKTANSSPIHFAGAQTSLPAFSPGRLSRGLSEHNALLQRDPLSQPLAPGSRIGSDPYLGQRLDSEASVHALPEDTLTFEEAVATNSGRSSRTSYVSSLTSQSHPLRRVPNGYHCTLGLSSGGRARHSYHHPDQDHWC
T1 sequence (Q02410 whole entry): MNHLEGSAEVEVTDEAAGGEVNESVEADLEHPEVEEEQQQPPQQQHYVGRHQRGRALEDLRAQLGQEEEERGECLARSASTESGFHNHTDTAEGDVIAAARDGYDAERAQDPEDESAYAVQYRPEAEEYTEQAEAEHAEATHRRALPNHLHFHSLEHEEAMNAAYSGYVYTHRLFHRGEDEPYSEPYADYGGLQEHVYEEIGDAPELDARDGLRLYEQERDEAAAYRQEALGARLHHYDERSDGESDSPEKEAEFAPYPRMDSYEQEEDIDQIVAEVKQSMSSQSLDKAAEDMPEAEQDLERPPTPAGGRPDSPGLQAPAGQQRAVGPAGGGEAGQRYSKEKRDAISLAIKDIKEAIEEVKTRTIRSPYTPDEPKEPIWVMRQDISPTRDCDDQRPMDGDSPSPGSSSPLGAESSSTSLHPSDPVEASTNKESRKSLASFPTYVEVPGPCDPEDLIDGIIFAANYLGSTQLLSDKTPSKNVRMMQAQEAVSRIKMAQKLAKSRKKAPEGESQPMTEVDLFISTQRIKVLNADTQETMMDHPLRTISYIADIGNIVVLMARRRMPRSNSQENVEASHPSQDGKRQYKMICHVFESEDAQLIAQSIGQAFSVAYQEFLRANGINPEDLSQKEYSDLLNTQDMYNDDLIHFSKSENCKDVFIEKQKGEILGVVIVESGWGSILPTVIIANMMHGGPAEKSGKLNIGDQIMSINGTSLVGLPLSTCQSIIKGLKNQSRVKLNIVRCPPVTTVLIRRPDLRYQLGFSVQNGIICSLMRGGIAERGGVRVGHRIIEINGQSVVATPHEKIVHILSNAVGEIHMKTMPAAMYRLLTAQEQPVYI

[6] = molecular target: T1, Voltage-gated N-type calcium channel alpha-1B subunit/Amyloid beta A4 precursor protein-binding family A member 1; assay: disruptors of Mint-PDZ/N-type channel peptide interaction – biochemical, HTRF, SAR follow-up (AID 2489); type: functional
[7] = molecular target: DNA repair protein RAD52 homolog (Homo sapiens, UniProt P43351); type: functional, biochemical
Sequence of DNA repair protein RAD52 homolog (P43351 whole entry): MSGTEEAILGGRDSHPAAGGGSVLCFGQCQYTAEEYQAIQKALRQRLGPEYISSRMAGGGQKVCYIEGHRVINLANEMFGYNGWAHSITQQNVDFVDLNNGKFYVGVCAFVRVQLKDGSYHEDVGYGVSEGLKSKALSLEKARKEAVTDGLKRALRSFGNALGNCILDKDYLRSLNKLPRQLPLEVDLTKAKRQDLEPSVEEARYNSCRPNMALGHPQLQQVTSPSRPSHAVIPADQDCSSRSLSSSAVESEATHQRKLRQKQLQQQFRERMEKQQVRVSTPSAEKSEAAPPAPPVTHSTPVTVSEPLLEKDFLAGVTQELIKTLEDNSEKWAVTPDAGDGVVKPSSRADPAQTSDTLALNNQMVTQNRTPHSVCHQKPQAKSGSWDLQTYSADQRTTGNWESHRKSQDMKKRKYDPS

[8] = NIH-3T3 fibroblast cytotoxicity, dose response, cytotoxicity control, cell-based, fluorescence, Alamar Blue, secondary assay (AID 2327); type: functional;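 also: NIH-3T3 mouse fibroblasts cultured with fluconazole at 8 µg/mL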
[9] = C. albicans growth with fluconazole, confirmation, fluorescence, retest (AID 2467); type: functional, cell-based
Exodeoxyribonuclease V = Exodeoxyribonuclease V (Escherichia coli (strain K12), UniProt P04993+P07648+P08394); assay: E. coli RecBCD inhibitors, dose response, counter-screen for AddAB inhibitor project, absorbance, V66 E. coli, mutant T4 phage (AID 492957); type: functional, cell-based, Escherichia coli str. K-12 substr. MG1655
[10] = Luminescence Cell-Based Dose Retest to Confirm Inhibitors of Cancer Stem Cells. [Related pubchem assays (depositor defined):AID2717, AID2721]; type: functional; settings: Homo sapiens
[11] = Counterscreen for AddAB inhibitors: absorbance-based bacterial cell-based high throughput dose response assay for inhibitors of bacterial viability. [Related pubchem assays (depositor defined):AID435030, AID449728, AID449731, AID488942, AID488955, AID488956]; type: functional
[12] = molecular target: Heat shock protein HSP 90-alpha (Homo sapiens, UniProt P07900); type: functional, organism-based
H9c2 = assay: cells; type: functional, cell-based; settings: Rattus norvegicus, H9c2, Myocardium;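 also: confirmatory concentration-response retest of ultra-high-throughput screening hits for modulation of myocardial damage; cell death induced by hydrogen peroxide oxidative stress; compound pretreatment for 60 min then peroxide exposure for 2 h; potency is for protecting the cells against peroxide damage rather than for killing them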
[13] = molecular target: T2, Heat shock factor protein 1 (Mus musculus, UniProt P38532); assay: inhibition of MG132-induced HSE-luciferase signal, confirmation, cell-based, NIH3T3, luminescence, dose retest (AID 2382); type: functional;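 also: NIH3T3 fibroblasts with HSF1-driven luciferase reporter stressed by proteasome inhibitor MG132; luminescence from HSF1-driven luciferase expression after 8 hours of MG132 stress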
T2 sequence (P38532 whole entry): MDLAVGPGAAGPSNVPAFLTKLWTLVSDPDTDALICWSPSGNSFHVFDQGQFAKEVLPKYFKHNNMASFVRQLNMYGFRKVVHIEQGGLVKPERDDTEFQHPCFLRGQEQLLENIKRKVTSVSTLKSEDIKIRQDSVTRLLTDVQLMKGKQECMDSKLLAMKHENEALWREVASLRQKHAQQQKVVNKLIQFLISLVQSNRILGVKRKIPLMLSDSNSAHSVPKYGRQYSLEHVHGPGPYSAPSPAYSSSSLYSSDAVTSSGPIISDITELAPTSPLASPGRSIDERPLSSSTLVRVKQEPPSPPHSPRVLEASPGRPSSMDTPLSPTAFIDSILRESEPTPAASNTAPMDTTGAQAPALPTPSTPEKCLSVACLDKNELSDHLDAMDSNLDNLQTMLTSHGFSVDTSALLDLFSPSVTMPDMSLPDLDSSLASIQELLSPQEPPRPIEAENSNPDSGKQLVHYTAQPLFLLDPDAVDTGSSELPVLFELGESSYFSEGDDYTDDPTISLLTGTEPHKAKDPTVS

Escherichia coli [14] = assay: microbe, parasite or virus in culture
Phospholipase D1 = Phospholipase D1 (Homo sapiens, UniProt Q13393); assay: PLD1 inhibitor potency in cells, dose response (AID 602151); type: functional;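 also: cellular PLD1 assay in Calu-1 cells stimulated with PMA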
Sequence of Phospholipase D1 (Q13393 whole entry): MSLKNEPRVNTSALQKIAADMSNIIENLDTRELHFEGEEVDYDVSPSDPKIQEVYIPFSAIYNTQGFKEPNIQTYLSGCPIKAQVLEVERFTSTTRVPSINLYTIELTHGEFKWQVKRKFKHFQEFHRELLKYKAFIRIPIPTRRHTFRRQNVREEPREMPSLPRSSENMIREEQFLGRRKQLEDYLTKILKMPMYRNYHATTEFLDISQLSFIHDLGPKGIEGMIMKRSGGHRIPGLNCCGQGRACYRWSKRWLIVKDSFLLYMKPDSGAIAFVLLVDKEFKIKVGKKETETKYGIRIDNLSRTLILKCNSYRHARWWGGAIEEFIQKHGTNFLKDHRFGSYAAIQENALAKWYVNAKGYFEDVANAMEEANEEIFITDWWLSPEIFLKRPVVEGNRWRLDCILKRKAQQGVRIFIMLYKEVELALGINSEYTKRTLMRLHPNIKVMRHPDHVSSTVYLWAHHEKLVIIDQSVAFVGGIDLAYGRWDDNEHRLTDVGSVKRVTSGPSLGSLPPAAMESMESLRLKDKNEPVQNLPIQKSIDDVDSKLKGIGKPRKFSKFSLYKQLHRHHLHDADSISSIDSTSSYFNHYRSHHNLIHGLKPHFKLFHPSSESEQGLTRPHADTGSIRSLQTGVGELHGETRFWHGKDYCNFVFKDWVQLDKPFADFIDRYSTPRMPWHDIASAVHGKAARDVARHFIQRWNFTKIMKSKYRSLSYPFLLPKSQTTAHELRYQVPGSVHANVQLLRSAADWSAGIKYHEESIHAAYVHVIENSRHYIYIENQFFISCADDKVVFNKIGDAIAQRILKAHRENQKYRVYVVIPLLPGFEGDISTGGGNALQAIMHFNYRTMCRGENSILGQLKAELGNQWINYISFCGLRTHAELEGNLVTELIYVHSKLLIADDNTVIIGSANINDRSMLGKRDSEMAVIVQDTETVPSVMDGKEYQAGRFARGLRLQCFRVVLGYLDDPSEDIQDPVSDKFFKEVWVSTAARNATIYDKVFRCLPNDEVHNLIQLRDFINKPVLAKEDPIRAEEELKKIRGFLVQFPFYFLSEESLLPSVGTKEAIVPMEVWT

Phospholipase D2 = Phospholipase D2 (Homo sapiens, UniProt O14939); assay: PLD2 inhibitor potency in cells, dose response (AID 602147); type: functional;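 also: cellular assay in HEK293 cells overexpressing GFP-tagged PLD2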
[15] = molecular target: T3, Sentrin-specific protease 8 (Homo sapiens, UniProt Q96LD8); assay: SENP8 protease inhibitors, SAR follow-up, biochemical, luminescence (AID 504501); type: functional
T3 sequence (Q96LD8 whole entry): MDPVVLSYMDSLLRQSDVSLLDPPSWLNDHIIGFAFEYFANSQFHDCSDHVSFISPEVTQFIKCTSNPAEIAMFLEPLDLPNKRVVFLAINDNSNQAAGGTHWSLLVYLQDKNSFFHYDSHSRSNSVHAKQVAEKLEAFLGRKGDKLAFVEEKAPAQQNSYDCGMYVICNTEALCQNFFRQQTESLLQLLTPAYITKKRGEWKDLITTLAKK

Caspase-3 = molecular target: T4, Caspase-3 (Homo sapiens, UniProt P42574); assay: SAR Analysis of small molecule inhibitors of Sentrin-specific proteases (SENPs) using a Caspase-3 Selectivity assay. [Related pubchem assays (depositor defined):AID2540, AID2599, AID434973, AID489001]; type: functional
T4 sequence (P42574 whole entry): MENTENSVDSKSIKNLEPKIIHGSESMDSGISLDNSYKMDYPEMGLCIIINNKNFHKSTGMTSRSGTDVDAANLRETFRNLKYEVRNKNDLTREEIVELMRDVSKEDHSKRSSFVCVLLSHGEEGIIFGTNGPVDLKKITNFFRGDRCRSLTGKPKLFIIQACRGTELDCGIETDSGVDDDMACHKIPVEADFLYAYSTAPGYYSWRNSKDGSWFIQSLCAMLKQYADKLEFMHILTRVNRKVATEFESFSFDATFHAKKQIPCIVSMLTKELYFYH

[16] = molecular target: T5, Sentrin-specific protease 6 (Homo sapiens, UniProt Q9GZR1); assay: SAR Analysis of small molecule inhibitors of Sentrin-specific protease 6 (SENP6) using a Luminescent assay. [Related pubchem assays (depositor defined):AID2582, AID2599]; type: functional
T5 sequence (Q9GZR1 whole entry): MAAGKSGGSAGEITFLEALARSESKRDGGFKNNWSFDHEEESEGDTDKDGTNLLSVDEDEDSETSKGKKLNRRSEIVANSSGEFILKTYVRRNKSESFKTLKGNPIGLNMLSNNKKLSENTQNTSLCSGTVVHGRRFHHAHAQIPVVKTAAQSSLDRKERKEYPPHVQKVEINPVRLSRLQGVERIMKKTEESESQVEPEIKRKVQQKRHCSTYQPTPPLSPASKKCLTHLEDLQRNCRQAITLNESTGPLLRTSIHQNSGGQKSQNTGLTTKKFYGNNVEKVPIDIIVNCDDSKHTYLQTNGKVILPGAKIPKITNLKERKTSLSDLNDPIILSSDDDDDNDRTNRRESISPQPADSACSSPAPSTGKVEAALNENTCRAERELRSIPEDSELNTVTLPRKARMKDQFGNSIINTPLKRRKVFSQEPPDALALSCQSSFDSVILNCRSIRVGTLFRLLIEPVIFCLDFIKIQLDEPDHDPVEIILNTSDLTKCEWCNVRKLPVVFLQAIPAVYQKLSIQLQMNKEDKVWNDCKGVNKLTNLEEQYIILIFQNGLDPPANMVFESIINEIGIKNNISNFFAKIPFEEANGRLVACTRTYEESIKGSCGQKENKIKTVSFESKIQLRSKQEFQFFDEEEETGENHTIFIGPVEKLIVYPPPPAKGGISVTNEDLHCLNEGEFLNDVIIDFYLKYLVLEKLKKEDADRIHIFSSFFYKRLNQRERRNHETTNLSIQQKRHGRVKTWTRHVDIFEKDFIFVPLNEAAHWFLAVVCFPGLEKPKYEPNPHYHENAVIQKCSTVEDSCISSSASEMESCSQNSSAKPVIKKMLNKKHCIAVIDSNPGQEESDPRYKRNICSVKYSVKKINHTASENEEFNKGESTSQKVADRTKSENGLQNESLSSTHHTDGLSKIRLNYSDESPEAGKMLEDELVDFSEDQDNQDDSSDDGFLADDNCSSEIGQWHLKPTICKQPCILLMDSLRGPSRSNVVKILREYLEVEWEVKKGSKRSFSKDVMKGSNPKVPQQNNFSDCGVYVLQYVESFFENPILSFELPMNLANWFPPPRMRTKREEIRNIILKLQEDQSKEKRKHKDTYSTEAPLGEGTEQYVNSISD

[17] = molecular target: T6, Sentrin-specific protease 7 (Homo sapiens, UniProt Q9BQF6); assay: SENP7 protease inhibitors, SAR follow-up, biochemical, luminescence (AID 504497); type: functional
T6 sequence (Q9BQF6 whole entry): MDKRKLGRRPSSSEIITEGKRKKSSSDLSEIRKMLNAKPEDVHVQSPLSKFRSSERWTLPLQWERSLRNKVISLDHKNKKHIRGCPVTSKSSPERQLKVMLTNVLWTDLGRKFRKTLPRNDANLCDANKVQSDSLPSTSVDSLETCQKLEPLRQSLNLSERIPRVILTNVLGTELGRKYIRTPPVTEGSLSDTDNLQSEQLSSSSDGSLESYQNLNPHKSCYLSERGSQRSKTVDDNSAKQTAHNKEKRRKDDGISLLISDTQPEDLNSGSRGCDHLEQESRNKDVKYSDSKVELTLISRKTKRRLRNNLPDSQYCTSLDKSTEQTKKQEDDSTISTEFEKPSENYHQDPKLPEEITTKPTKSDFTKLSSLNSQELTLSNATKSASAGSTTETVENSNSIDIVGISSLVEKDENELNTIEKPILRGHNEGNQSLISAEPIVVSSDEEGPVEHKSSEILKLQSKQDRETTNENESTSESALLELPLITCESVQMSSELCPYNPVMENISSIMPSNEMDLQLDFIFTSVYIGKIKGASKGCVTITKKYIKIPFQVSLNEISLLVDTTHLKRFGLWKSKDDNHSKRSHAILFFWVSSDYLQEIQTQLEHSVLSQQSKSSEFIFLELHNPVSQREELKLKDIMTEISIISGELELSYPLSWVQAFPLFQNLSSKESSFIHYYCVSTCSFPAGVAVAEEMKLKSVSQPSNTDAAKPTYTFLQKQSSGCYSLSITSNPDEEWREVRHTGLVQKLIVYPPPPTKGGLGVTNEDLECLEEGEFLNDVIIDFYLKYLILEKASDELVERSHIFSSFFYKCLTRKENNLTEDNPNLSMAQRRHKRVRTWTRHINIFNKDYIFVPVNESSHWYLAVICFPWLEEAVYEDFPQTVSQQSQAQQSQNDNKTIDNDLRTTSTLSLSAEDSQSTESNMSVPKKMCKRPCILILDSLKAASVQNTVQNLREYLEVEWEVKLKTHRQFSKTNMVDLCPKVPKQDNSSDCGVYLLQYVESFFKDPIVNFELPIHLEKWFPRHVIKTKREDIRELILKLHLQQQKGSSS

Escherichia coli [18] = assay: microbe, parasite or virus in culture; remark: listed apart in the source

CCOc1ccc(N(CC(=O)Nc2ccc(OC)cc2)S(C)(=O)=O)cc1
AC50 (A-375 [1]): > 35 µM (active) | AC50 (A-375 [2]): > 35 µM (active)

CCOc1ccc(-c2nc(CSCC(=O)NCCc3ccccc3)c(C)o2)cc1
IC50 (Jurkat): 55 µM (inactive) | IC50 (HEK293 [3]): 22.9 µM (inactive) | IC50 (HEK293 [4]): 35.6 µM (inactive)

CCN(CC)CCNC(=O)c1cc(-c2ccco2)nc2ccccc12
IC50 (SUMO E1/E2): 2.01 µM (active) | IC50 [5]: 6 µM (active) | IC50 [6]: 5.19 µM (active) | AC50 [7]: 11.7 µM (active)

O=C1c2ccccc2NC(c2ccc(-c3ccc(Br)cc3)o2)N1O (stereo unspecified)
EC50 [8]: > 150 µM (inconclusive) | EC50 [9]: > 38 µM (not active) | IC50 (Exodeoxyribonuclease V): > 119 µM (inactive) | AC50 [10]: 4.35 µM (active) | IC50 [11]: > 119 µM (inactive) | AC50 [12]: 6.74 µM (active) | IC50 (H9c2): > 79 µM (inactive)

CCN1CCN(CCCNc2[nH]cnc3ncnc2-3)CC1
EC50 [13]: > 195 µM (not active) | AC50 (Escherichia coli [14]): 74.1 µM (active)

C[C@@H](CN1CCC(n2c(=O)[nH]c3ccccc32)CC1)NC(=O)c1ccco1
IC50 (Phospholipase D1): 0.19 µM (active) | IC50 (Phospholipase D2): 7.9 µM (active)

COc1ccccc1CC(=O)Nc1ccc(-c2noc(/C=C/c3ccccc3)n2)cc1
IC50 [15]: > 99 µM (inactive) | IC50 (Caspase-3): > 99 µM (inactive) | IC50 [16]: > 99 µM (inactive) | IC50 [17]: > 99 µM (inactive)

O=C(NCCN1CCC2(CC1)C(=O)NCN2c1ccc(Cl)cc1)c1ccc(Cl)cc1
IC50 (Phospholipase D1): 3.59 µM (active) | IC50 (Phospholipase D2): 0.635 µM (active)

CC(C)CNC(=O)CCc1nc(-c2ccc(C(C)(C)C)cc2)no1
IC50 (Jurkat): 2.97 µM (active) | IC50 (HEK293 [3]): 1.51 µM (active) | IC50 (HEK293 [4]): > 80 µM (inactive)

Cc1ccc(C2CC2/C(=N/O)c2ccc(F)cc2)cc1 (stereo unspecified)
AC50 (Escherichia coli [18]): 25.9 µM (active) | AC50 (Escherichia coli [14]): 53.3 µM (active)
